Test results published in patent US20200360520A1, “USE OF RIFAMYCIN-QUINOLIZIDONE COUPLING MOLECULE” (priority 2019, published 2020).
In brackets after ≈: the same amount, converted by molar mass. Read-outs that look alike come from different tables or passages of the source.

Assays:
Type in all cases: cell-based
[1] = test system: Mycobacterium avium; experiment: MBC test (plating on agar, CFU count); conditions: for MBC: Mycobacterium avium, read-out: Minimum Bactericidal Concentration (MBC)
[2] = test system: Mycobacterium kansasii; experiment: MIC by micro broth dilution method (resazurin microtiter assay); conditions: for MIC: Mycobacterium kansasii, read-out: Minimum Inhibitory Concentration (MIC)
[3] = test system: Mycobacterium fortuitum; experiment: as above; conditions: Mycolicibacterium fortuitum, MH Culture Medium, read-out: Minimum Inhibitory Concentration (MIC)
[4] = test system: Mycobacterium intracellulare; experiment: as above; conditions: for MIC: Mycobacterium intracellulare, MH Culture Medium, read-out: Minimum Inhibitory Concentration (MIC)
[5] = test system: Mycobacterium abscessus; experiment: as above; conditions: Mycobacteroides abscessus, read-out: Minimum Inhibitory Concentration (MIC)
[6] = test system: Mycobacterium massiliense; experiment: as above; conditions: Mycobacteroides abscessus, MH Culture Medium, read-out: Minimum Inhibitory Concentration (MIC)
[7] = test system: Mycodacterium chelonei; experiment: as above; conditions: MH Culture Medium; Chelonei (standard strain); read-out: Minimum Inhibitory Concentration (MIC)
[8] = test system: Mycobacterium abscessus; experiment: MBC test (plating on agar, CFU count)
[9] = test system: Mycobacterium kansasii; experiment: MBC test (plating on agar, CFU count); conditions: for MBC: Mycobacterium kansasii, read-out: Minimum Bactericidal Concentration (MBC)
[10] = test system: Mycobacterium avium; experiment: MIC by micro broth dilution method (resazurin microtiter assay); conditions: read-out: Minimum Inhibitory Concentration (MIC)

How did the MBC ([1]; 7H9 Culture Medium, Mycobacterium avium Rough) turn out when `CO[C@H]1/C=C/O[C@@]2(C)Oc3c(C)c(O)c4c(O)c(c(/C=N/N5CCC(N(C)C6([C@@H]7CCN(c8c(F)cn9c(=O)c(C(=O)O)cc(C%10CC%10)c9c8C)C7)CC6)CC5)c(O)c4c3C2=O)NC(=O)/C(C)=C\C=C\[C@H](C)[C@H](O)[C@@H](C)[C@@H](O)[C@@H](C)[C@H](CC(C)=O)[C@@H]1C` [Compound I] was run?
The MBC was greater than 64 µg/mL.

What about the MBC ([1]; 7H9 Culture Medium, Mycobacterium avium Smooth) of the same compound?
The MBC was 16 µg/mL (≈ 13.3 µM).

And the MBC ([1]; MH Culture Medium, Mycobacterium avium Rough)?
Its MBC is greater than 64 µg/mL.

And the MBC ([1]; MH Culture Medium, Mycobacterium avium Smooth)?
Its MBC is 16 µg/mL (≈ 13.3 µM).

What about the “bactericidal activity (MBC), in words” value ([1]; against smooth type strain of Mycobacterium avium) of the same compound?
The value was “had an activity”.

And the MIC ([2]; 7H9 Broth)?
The MIC was 2 µg/mL (≈ 1.66 µM).

And the MIC ([2]; MH Broth)?
Its MIC is 2 µg/mL (≈ 1.66 µM).

What about the MIC ([2]; MH Culture Medium, Kansasii (standard strain)) of the same compound?
The MIC was 0.0625 µg/mL (≈ 0.0519 µM).

And the MIC ([2]; MH Culture Medium, clinically isolated strain Kansasii (S9))?
The MIC was 0.25 µg/mL (≈ 0.208 µM).

What about the MIC ([2]; MH Culture Medium, clinically isolated strain Kansasii (S199)) of the same compound?
The MIC was 0.0625 µg/mL (≈ 0.0519 µM).

What about the MIC ([2]; MH Culture Medium, clinically isolated strain Kansasii (S520)) of the same compound?
The MIC was 0.0625 µg/mL (≈ 0.0519 µM).

What about the MIC ([2]; MH Culture Medium, clinically isolated strain Kansasii (S609)) of the same compound?
Its MIC is 0.0625 µg/mL (≈ 0.0519 µM).

And the “activity compared with controls, in words” value ([2]; against mycobacterium kansasii)?
Its value is “much higher than that of rifampicin, ciprofloxacin and metronidazole”.

What about the MIC ([3]; Fortuitum (standard strain)) of the same compound?
The MIC was 64 µg/mL (≈ 53.2 µM).

And the MIC ([3]; clinically isolated strain Fortuitum (S103))?
The MIC was greater than 64 µg/mL.

And the MIC ([3]; clinically isolated strain Fortuitum (S111))?
The MIC was greater than 64 µg/mL.

And the MIC ([4]; Intracellulare (standard strain))?
Its MIC is 0.5 µg/mL (≈ 0.415 µM).

And the MIC ([4]; clinically isolated strain Intracellulare (S90))?
The MIC was 64 µg/mL (≈ 53.2 µM).

What about the MIC ([4]; clinically isolated strain Intracellulare (S261)) of the same compound?
Its MIC is 64 µg/mL (≈ 53.2 µM).

What about the MIC ([4]; clinically isolated strain Intracellulare (S269)) of the same compound?
Its MIC is greater than 64 µg/mL.

What about the MIC ([4]; clinically isolated strain Intracellulare (S290)) of the same compound?
Its MIC is 64 µg/mL (≈ 53.2 µM).

What about the MIC ([4]; clinically isolated strain Intracellulare (S291)) of the same compound?
Its MIC is 64 µg/mL (≈ 53.2 µM).

What about the MIC ([4]; clinically isolated strain Intracellulare (S298)) of the same compound?
Its MIC is 64 µg/mL (≈ 53.2 µM).

And the MIC ([4]; clinically isolated strain Intracellulare (S541))?
Its MIC is 32 µg/mL (≈ 26.6 µM).

What about the MIC ([4]; clinically isolated strain Intracellulare (S623)) of the same compound?
The MIC was 64 µg/mL (≈ 53.2 µM).

What about the MIC ([4]; clinically isolated strain Intracellulare (ZPS)) of the same compound?
The MIC was 32 µg/mL (≈ 26.6 µM).

What about the MIC ([4]; clinically isolated strain intracellulare (S442)) of the same compound?
Its MIC is 32 µg/mL (≈ 26.6 µM).

What about the “activity, in words” value ([4]; against Mycobacterium intracellulare) of the same compound?
Its value is “weak”.

What about the MIC ([5]; 7H9 Broth) of the same compound?
The MIC was 1 µg/mL (≈ 0.831 µM).

What about the MIC ([5]; MH Broth) of the same compound?
Its MIC is 1 µg/mL (≈ 0.831 µM).

What about the MIC ([6]; clinically isolated strain Massiliense (D10)) of the same compound?
Its MIC is greater than 64 µg/mL.

What about the MIC ([6]; clinically isolated strain Massiliense (D14)) of the same compound?
Its MIC is greater than 64 µg/mL.

What about the MIC ([6]; clinically isolated strain Massiliense (D18)) of the same compound?
The MIC was greater than 64 µg/mL.

What about the MIC [7] of the same compound?
Its MIC is 64 µg/mL (≈ 53.2 µM).

What about the “Minimum Bactericidal Concentration (MBC)” value ([8]; MH Culture Medium) of the same compound?
Its value is 1 µg/mL.

And the MBC ([8]; Mycobacteroides abscessus, 7H9 Culture Medium, read-out: Minimum Bactericidal Concentration (MBC))?
Its MBC is 1 µg/mL (≈ 0.831 µM).

What about the MBC ([9]; 7H9 Culture Medium) of the same compound?
Its MBC is 2 µg/mL (≈ 1.66 µM).

What about the MBC ([9]; MH Culture Medium) of the same compound?
Its MBC is 2 µg/mL (≈ 1.66 µM).

And the “bactericidal activity (MBC) compared with controls, in words” value ([9]; against mycobacterium kansasii)?
Its value is “higher than or much higher than that of all other tested antibiotic drugs”.

And the MIC ([10]; 7H9 Broth, Mycobacterium avium Rough)?
The MIC was greater than 64 µg/mL.

What about the MIC ([10]; 7H9 Broth, Mycobacterium avium Smooth) of the same compound?
Its MIC is 4 µg/mL (≈ 3.32 µM).

What about the MIC ([10]; MH Broth, Mycobacterium avium Rough) of the same compound?
Its MIC is greater than 64 µg/mL.

And the MIC ([10]; MH Broth, Mycobacterium avium Smooth)?
Its MIC is 4 µg/mL (≈ 3.32 µM).

And the MIC ([10]; MH Culture Medium, Avium (standard strain))?
The MIC was 1 µg/mL (≈ 0.831 µM).

And the MIC ([10]; MH Culture Medium, clinically isolated strain Avium (S31))?
Its MIC is 0.25 µg/mL (≈ 0.208 µM).

And the MIC ([10]; MH Culture Medium, clinically isolated strain Avium (S123))?
Its MIC is 8 µg/mL (≈ 6.65 µM).

And the MIC ([10]; MH Culture Medium, clinically isolated strain Avium (S559))?
The MIC was 0.25 µg/mL (≈ 0.208 µM).

And the MIC ([10]; MH Culture Medium, clinically isolated strain Avium (S568))?
The MIC was 32 µg/mL (≈ 26.6 µM).

What about the MIC ([10]; MH Culture Medium, clinically isolated strain Avium (S577)) of the same compound?
The MIC was 0.125 µg/mL (≈ 0.104 µM).

What about the MIC ([10]; MH Culture Medium, clinically isolated strain Avium (S597)) of the same compound?
The MIC was greater than 64 µg/mL.

And the MIC ([10]; MH Culture Medium, clinically isolated strain Avium (S602))?
Its MIC is 8 µg/mL (≈ 6.65 µM).
